These results are taken from a melting point compilation (Tetko et al.; mined from patent text by program, amines drawn as free bases though some values may be those of a salt).

In the case of `CN(C)c1c(C(N)=O)cnc2c(NC(=O)c3c(Cl)cccc3Cl)cccc12`, the melting point (as a rule, the temperature, or range, at which the solid turns liquid) lay within 222 to 223 °C. For the compound `CCOC(=O)c1cnn(-c2ccccc2[N+](=O)[O-])c1C(=O)OCC`, the melting point fell in the range of 45 to 46 °C. To `CC(C)c1ccc(-n2ncc(C(=O)NC34CC5CC(CC(C5)C3)C4)c2OCCN2CCOCC2)cc1` belongs 132 to 134 °C. On to `CCCc1cc(O)cc2nc(-c3ccc(O)cc3)oc12`, for which the melting point is 110 to 112 °C. In the case of `CCOC(=O)C(CC(=O)c1cccc(C(F)(F)F)c1)(NC(C)=O)C(=O)OCC` it was 91 to 92 °C; in that of `O=C(O)c1ccc(S(=O)(=O)C(Br)(Br)Br)cc1`, over 305 °C. In the case of `COC(=O)c1cccc2c1Oc1c(cccc1C(=O)OC)N2` it was 145 to 146 °C; in that of `CN(C)S(=O)(=O)c1ccc2c(c1)C(=O)c1cc(Br)ccc1CC2`, 142 to 145 °C.

`COc1cc2c(Nc3ccc(Sc4nccn4C)c(Cl)c3)c(C#N)cnc2cc1F`: the melting point fell in the range of 295 to 297 °C. To `COc1ccc(C2(C#N)CCC(=NO)CC2)cc1OCC1CC1` (stereo not drawn) belongs 75 to 77 °C; to `CC(C)(C)c1ccc(-c2[nH]c3nccnc3c2CCCO)cc1`, 187 to 189 °C. In the case of `CCCn1cc(C(=O)OCC)c(C(=O)OCC)c1N1C(=O)c2ccccc2C1=O` it was 100 to 101 °C.

In turn, `Cc1ccc2c(c1)C(OC(C)C)=C(C(=O)O)S2=O` (stereo not drawn) returned a melting point of 184 to 187 °C. In the case of `CC(C)(C)OC(=O)C1CCCN2CC(CBr)C(=O)N12` (stereo not drawn) it was 88 to 89 °C; in that of `COC(=O)c1nn(-c2cccc(NC(C)=O)c2)c(=O)n(Cc2ccc(Cl)cc2)c1=O`, 193 °C; in that of `CC(C)(C)c1ccc(C(NC(=O)c2c(F)cccc2Cl)N2CCOCC2)cc1` (stereo not drawn), 180 to 181 °C.

Consider `O=C(NCc1ccccc1)c1ccnc(-n2cnn(Cc3ccc(F)cc3)c2=O)c1`, for which the melting point lay within 173 to 175 °C. The compound `O=c1[nH]c2cc(Cl)ccc2c(=O)n1-c1ccccc1` had a melting point of over 300 °C. To `O=C(NCN1CCCCC1)Nc1ccc(-c2cnc(CSCCOc3ccccc3)o2)cc1` belongs 84 to 87 °C; to `O=C(c1ccsc1)c1cccc(-c2c(O)c3ccc(Cl)cc3[nH]c2=O)c1`, 287 to 290 °C; to `CCCCc1ccc(C(O)=S)nc1`, 99 °C. With `O=C(O)CCCCCc1nn(-c2ccccc2)c2c1CCC2`, the melting point fell in the range of 95 to 96 °C.

In turn, `Cc1cccc(C(=O)NC(C)C)c1NC(=O)c1cc(C(F)(F)F)nn1-c1ncccc1C(F)(F)F` gave a melting point of 227 to 230 °C. To `CC(C)(COc1ccc(Cl)cc1)C(=O)Cn1cncn1` belongs 88 to 90 °C; to `Cc1nn(-c2cc(O)c(Cl)cc2F)c(C)c1[N+](=O)[O-]`, 157 to 158 °C.

In the case of `CCOC(=O)C(C)OCc1cc2nc(Cl)ccc2n1S(=O)(=O)c1ccc2nc(NC(C)=O)sc2c1` (stereo not drawn), the melting point is 100 to 102 °C. In the case of `C[C@H](NS(=O)(=O)c1ccc(-c2c(C#N)c3cc(C(F)(F)F)cnc3n2-c2ccccc2)nc1)C(F)(F)F` it was 186 to 188 °C; in that of `NCCCc1ccc(CCCN)nc1`, 116 to 119 °C; in that of `O=C(Nc1ccccc1F)Nc1cc(Cl)ccc1C(=O)O`, 195 to 197 °C. In the case of `CCOC(=O)c1c(O)c2ccc(F)cc2c(=O)n1CC1CC1`, the melting point is 88 to 89 °C. To `CCCc1[nH]c2cc(C(=O)O)ccc2c1C(=O)C1CCC1` belongs 244 to 245 °C; to `Cc1cnc(CCCCNc2ncc(Cc3ccc(C)nc3)c(=O)[nH]2)c(N)c1`, 86 to 89 °C. To `Clc1c2c(nc3ccccc13)CCCNC2` belongs 127 °C. To `Cn1ncc(N2CCN(CC=Cc3ccccc3)CC2)c(Cl)c1=O` belongs 98 to 100 °C; to `Cc1cc(C)c2cc(-c3ccccc3)c(=O)n(CCN(C)C)c2n1`, 135 to 137 °C; to `COc1ccccc1CNc1ccc2cc(Nc3cc(C)on3)ccc2n1`, 132 °C. For the compound `CON1C(C)(C)CC(OC(=O)c2cccc(C(=O)OC3CC(C)(C)N(OC)C(C)(C)C3)c2)CC1(C)C`, the melting point fell in the range of 99 to 101 °C.

Compound `COc1c(Br)c(-c2ccc(C(C)(C)C)s2)cc2oc(=O)c(C)c(C)c12` had a melting point of 170 °C. To `Cc1c(Nc2c(C#N)cnc3sc(C4=CCN(S(C)(=O)=O)CC4)cc23)ccc2[nH]ccc12` belongs 228 °C; to `N#CC1C=Cc2ccccc2N1C(=O)c1ccccc1` (stereo not drawn), 153 to 154 °C; to `CC(=O)N1CCCC(=O)c2ccc(Cl)cc2C(c2ccccc2)CC1=O` (stereo not drawn), 184 to 185 °C. In the case of `COc1ccc(-n2c(=O)c(C(=O)C3=C(O)CCCC3=O)nc3c(Cl)cccc32)cc1` it was 249 to 251 °C; in that of `NCc1ccc2cc(O)ccc2c1`, 188 to 192 °C. To `CCCc1cc(Cl)c2oc(C(=O)c3ccc(OC)cc3)c(C)c2c1O` belongs 103 to 105 °C; to `CC1(C)C(C(=O)OCC(Cl)(Cl)Cl)N2C(=O)C(NC(=O)Cc3ccccc3)C2S1=O` (stereo not drawn), 166 to 168 °C; to `O=[N+]([O-])c1ccc(-c2ncnn2-c2ccc(Br)cc2)cc1`, 142 to 144 °C.

`COc1cccc(OC)c1C(=O)Nc1ccc(OCCN2CCCC2)cc1`: the melting point was 136 to 140 °C. In the case of `Cc1ccc(-c2c(CNC(=O)OC(C)(C)C)[nH]c(=O)c3ccc(C#N)cc23)cc1` it was 156 to 157 °C; in that of `CCc1nnc2n1N=C1c3cc(OC)c(OC)cc3CC1S2` (stereo not drawn), 212 °C; in that of `O=c1n(F)nc(SC(Cl)Cl)n1-c1ccccc1`, 128 to 130 °C.

The compound `CN1C=CCC2C1N2S(=O)(=O)c1ccc(N)cc1` (stereo not drawn) had a melting point of 188 to 190 °C.

Consider `COC(=O)NC(CCc1ccccc1)C(=O)O` (stereo not drawn), for which the melting point is 108 to 110 °C. Compound `CC(=O)NC(c1ccc(Cl)cc1)(c1ccc2c(c1)c(-c1nc(-c3ccccc3)cs1)cc(=O)n2C)c1cncn1C` (stereo not drawn) yielded a melting point of 244 °C. `CCOC(=O)c1ncc(C)c(-c2ccccc2)c1C(=O)N(CCO)Cc1cc(C(F)(F)F)cc(C(F)(F)F)c1` gave a melting point of 138 to 139 °C. In the case of `COc1cc(C(C)C(=O)NCC(COC(=O)C(C)(C)C)Cc2ccc(C(C)(C)C)cc2)ccc1NS(C)(=O)=O` (stereo not drawn) it was 54 to 57 °C; in that of `CON=Cc1nn(-c2c(Cl)cc(C(F)(F)F)cc2Cl)c(N)c1S(C)=O` (stereo not drawn), 80 °C. To `Cc1ccc(OC2CCN(C(=O)C(=O)Nc3ccc4[nH]c(=O)oc4c3)CC2)cc1` belongs 203 °C; to `CC(N)(C=CCP(=O)(O)O)C(=O)O` (stereo not drawn), 225 to 226 °C; to `Cn1nc(-c2cccc(N3Cc4cc(C(C)(C)C)ccc4C3=O)c2CO)cc(Nc2ccccn2)c1=O`, 236 to 237 °C. In the case of `CCCCCCOc1ccc(NC(=O)NCCC(C)(C)C)cc1` it was 103 to 104 °C; in that of `Oc1cccc(C#CC=Cc2cccc(O)c2)c1`, 146 to 147 °C; in that of `O=c1[nH]c(=O)n(C2CC(Br)C(CBr)O2)cc1C=CBr` (stereo not drawn), 153 °C. The compound `Cc1nc(N2CCN(Cc3ccc(F)cc3)C2=O)sc1-c1cc[nH]n1` had a melting point of 239 to 242 °C. In the case of `Cc1ccc2c(n1)sc1c(Cl)nnnc12` it was 188 to 189 °C; in that of `CCCCn1cc(-c2nnnn2C)c(=O)c2ccccc21`, 100 to 105 °C; in that of `Oc1c(Br)cc(-c2cccc3sc4c(Br)cccc4c23)cc1Br`, 118 to 119 °C. In the case of `CCOC(=O)N(CC(=O)O)C(=O)c1c(Br)ccc2c(C(F)(F)F)c(OC)ccc12` it was 167 to 168 °C; in that of `CCC(CC)CC(=N)NC(=S)Nc1ccc(Cl)cc1`, 116 to 118 °C; in that of `Cc1ccc(CCOc2ccc(N)cc2)nc1`, 74 to 75 °C. To `CC(=O)NCC1CN(c2ccc(N3CCN(C(=O)COC(=O)CCN(C)C)CC3)c(F)c2)C(=O)O1` (stereo not drawn) belongs 136 to 137 °C. Compound `CC(=O)Nc1c(C(=O)c2cc(Cl)ccn2)[nH]c2cc(Cl)ccc12` gave a melting point of 201 to 202 °C. To `Cc1ccc(Cl)cc1-n1c(CF)nc2ccc([N+](=O)[O-])cc2c1=O` belongs 191 to 192 °C; to `CC(C)(C)c1ccc2c(c1)C=C(/C=C/C=C/C=C/C(=O)O)CO2`, 200 to 202 °C; to `CCN(CC)C(=O)COc1ccc(CCCOC(=O)NCC2CC2)c(Oc2ncc(C(F)(F)F)cc2Cl)c1`, 94 to 94.5 °C. To `CCOC(=O)COc1ccnc2c(N)cccc12` belongs 94 °C. To `COc1cccc(OC)c1C=CC(=O)c1c(OC)cccc1OC` belongs 179 to 180 °C; to `Cn1cc(CS(C)(=O)=O)c(=O)c2sccc21`, 220 to 223 °C.

`C[C@H](Cn1cnc2c(=O)[nH]c(N)nc21)OCP(=O)(O)O` showed a melting point of 270 to 272 °C. `CCCn1nc(C(C)(F)F)nc1Cc1ccc(-c2ccccc2-c2nnn[nH]2)nc1` gave a melting point of 200 °C. For the compound `O=C1N(Cc2cnc(O)nc2)c2ccccc2C12COc1cc3c(cc12)OCCO3` (stereo not drawn), the melting point is over 250 °C. On to `CC(C)(C)c1cc(CCc2ccccc2NC(=O)NCCCC2CCCCC2)cc(C(C)(C)C)c1O`, for which the melting point came out at 166 °C.

Consider `CN1c2nnnn2-c2ccc(C(O)(c3ccc(Cl)cc3)c3cncn3C)cc2C1c1cccc(Cl)c1` (stereo not drawn), for which the melting point worked out at 235 °C. In turn, `Cc1c(C)c2ccc(OCCCCCc3ccccc3)cc2oc1=O` had a melting point of 101 °C.

For `CCOCc1nc2c(N)nc3cc(-c4cccc(C(=O)N5CCOCC5)c4)cnc3c2n1CC(C)(C)F`, the melting point fell in the range of 167 to 168 °C. To `OCc1ccc2c(c1)ncn2-c1cccc(-c2ccccc2)c1` belongs 130 to 131 °C; to `COc1ccc(S(=O)(=O)N2c3ccc(Br)cc3-c3ccccc3C2C(C)(C)C)cc1` (stereo not drawn), 195 to 198 °C. In the case of `O=C1NCCc2[nH]c3c(F)cccc3c21` it was 255 to 257 °C.

`COC(=O)NNC(=S)Cc1ccc(C)cc1`: the melting point was 104 to 105 °C.
